Laboratory results taken from patent publication US7683040B2, “Intranasal formulation of rotigotine” (SRZ Properties, Inc., priority 2003, dated 2010).
Blank lines part the entries; values can stand above or below the molecule they belong to.

Tests used:
[1] = comparative storage test in aqueous rotigotine solution with/without α-cyclodextrin; assay type: physicochemical; conditions: solution of 1.6 mg/ml with α-cyclodextrin, storage at 60° C. for 8 weeks
Text: The stabilizing effect of α-cyclodextrin becomes also apparent from a comparative test in an aqueous rotigotine solution.

[2] = (maximum) solubility in aqueous solution with α- or β-cyclodextrin, isocratic HPLC; assay type: physicochemical; conditions: aqueous solution and aqueous solutions containing α- or β-cyclodextrin
Procedure: The concentration was determined by isocratic HPLC analysis. HPLC column LiChroCART 75×4 mm, Superspher 60 RP-select B 5 μm (Merck), column temperature: 30° C., mobile phase: water/acetonitrile/methane sulfonic acid (65/35/0.05 v/v/v), flow rate: 2 mL/min, injection volume: 50 μl, detection at 220 nm, retention time approx. 1.5 min. The concentration was determined by use of an external reference solution with known concentration.

[3] = in-vitro permeation assay through nasal mucosa; assay type: in vitro ADME, cattle
Text: The intranasal formulation according to the present invention may preferably further contain a viscosity-enhancing substance. Glycerol and carboxymethylcellulose (CMC) are particularly useful as viscosity enhancers, but the present invention is not limited thereto. Glycerol is particularly preferred as it also has a soothing effect on the nasal mucosa. The viscosity of the intranasal formulations of the present invention should preferably be between 0.8 and 1.5 mm^2/s, most preferably around 1.2 mm^2/s. The viscosity can be determined by an Ubbelohde capillary viscosimeter with suspending ball-level for the determination of kinematic viscosity according to DIN 51562, part 1.
The pH-value of the formulation of the present invention should preferably in the range of 4.5 to 6.5, more preferably around 5.8±0.3. […] The pH value of the intranasal formulation can be adjusted during or after its preparation with a pharmaceutically acceptable acid or base. Most preferably, citric acid is used for this purpose.

[4] = rat, cited from earlier work
[5] = cited from earlier work
cilia = conditions: cited from earlier work

decrease in the rotigotine concentration [1]: -0.07 mg/mL
solubility (in words) [2]: practically insoluble
rotigotine uptake through nasal mucosa ([3]; formulation pH 4.5): significantly lower rotigotine uptake
drug uptake through nasal mucosa ([3]; formulation pH 5.8): optimal drug uptake
rotigotine uptake through nasal mucosa ([3]; formulation pH 6.5): significantly lower rotigotine uptake
uptake of rotigotine through the nasal mucosa ([3]; glycerol in the formulation): increase the uptake
Molecule: CCCN(CCc1cccs1)[C@H]1CCc2c(O)cccc2C1 [Rotigotine base, 5,6,7,8-tetrahydro-6-[propyl-[2-(2-thienyl)ethyl]amino]-1-naphthalenol]
bioavailability ([4]; buccal, nasal or rectal administration compared with oral dosing, solution in 1:1 PEG 400 and water): improved bioavailability
bioavailability for the nasal dosing ([4]; compared with results described for other lipophilic drugs): somewhat disappointing

Molecule: CN1CCc2cccc3c2[C@H]1Cc1ccc(O)c(O)c1-3 [apomorphine]
oxidation in solution [5]: subject to rapid oxidation

Molecule: benzalkonium chloride
ciliary toxicity (cilia): significant ciliary toxicity
